What was measured:
Type in all cases: in vivo
[1] = tested on: pigweed (Amaranthus retroflexus); assay: Test A preemergence, visual injury rating
Summary of the method: (§1)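 Visual injury scored 0–100 (100 = complete control) against untreated controls about 10 days after treatment in a greenhouse. Test chemicals, formulated with surfactant in non-phytotoxic solvent, were sprayed on soil preemergence or on 2-10 cm, one- to two-leaf plants postemergence.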

[2] = tested on: barnyardgrass (Echinochloa crus-galli); assay: Test A preemergence, visual injury rating
Summary of the method: as §1

[3] = tested on: Italian ryegrass (Lolium multiflorum); assay: Test A preemergence, visual injury rating
Summary of the method: as §1

[4] = tested on: kochia (Kochia scoparia); assay: Test A preemergence, visual injury rating
Summary of the method: as §1

[5] = tested on: giant foxtail (Setaria faberii); assay: Test A preemergence, visual injury rating
Summary of the method: as §1

[6] = tested on: ragweed (common ragweed, Ambrosia elatior); assay: Test A preemergence, visual injury rating
Summary of the method: as §1

[7] = tested on: barnyardgrass (Echinochloa crus-galli); assay: Test B flooded paddy test, plant response rating; conditions: 250 g ai/ha; Flood; scale of 0 to 100 where 0 is no effect and 100 is complete control; 13 to 15 days
Summary of the method: (§2)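 Compound was added to standing water 3 cm above soil, flood maintained, and plants held in a greenhouse before visual scoring against controls at 13 to 15 days.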

[8] = tested on: sedge, umbrella (small-flower umbrella sedge, Cyperus difformis); assay: Test B flooded paddy test, plant response rating; conditions: 250 g ai/ha; Flood; scale of 0 to 100 where 0 is no effect and 100 is complete control; 13 to 15 days
Summary of the method: as §2

[9] = tested on: rice (Oryza sativa); assay: Test B flooded paddy test, plant response rating; conditions: 250 g ai/ha; Flood; scale of 0 to 100 where 0 is no effect and 100 is complete control; 13 to 15 days
Summary of the method: as §2

[10] = tested on: ducksalad (Heteranthera limosa); assay: Test B flooded paddy test, plant response rating; conditions: 250 g ai/ha; Flood; scale of 0 to 100 where 0 is no effect and 100 is complete control; 13 to 15 days
Summary of the method: as §2

[11] = tested on: pigweed (Amaranthus retroflexus); assay: Test A postemergence, visual injury rating
Summary of the method: as §1

[12] = tested on: barnyardgrass (Echinochloa crus-galli); assay: Test A postemergence, visual injury rating; conditions: 0 to 100 scale, 0 is no effect, 100 is complete control, approximately 10 days
Summary of the method: as §1

[13] = tested on: Italian ryegrass (Lolium multiflorum); assay: Test A postemergence, visual injury rating
Summary of the method: as §1

[14] = tested on: kochia (Kochia scoparia); assay: Test A postemergence, visual injury rating
Summary of the method: as §1

[15] = tested on: galium (catchweed bedstraw, Galium aparine); assay: Test A postemergence, visual injury rating
Summary of the method: as §1

[16] = tested on: wheat (Triticum aestivum); assay: Test A postemergence, visual injury rating
Summary of the method: as §1

[17] = tested on: giant foxtail (Setaria faberii); assay: Test A postemergence, visual injury rating
Summary of the method: as §1

[18] = tested on: ragweed (common ragweed, Ambrosia elatior); assay: Test A postemergence, visual injury rating
Summary of the method: as §1

[19] = tested on: blackgrass (Alopecurus myosuroides); assay: Test A postemergence, visual injury rating
Summary of the method: as §1

[20] = tested on: corn (Zea mays); assay: Test A postemergence, visual injury rating
Summary of the method: as §1

[21] = 31 g ai/ha, 0 to 100 scale, 0 no effect, 100 complete control
[22] = 125 g ai/ha, 0 to 100 scale (0 no effect, 100 complete control)
[23] = 31 g ai/ha, 0 to 100 scale, 0 is no effect, 100 is complete control, approximately 10 days
[24] = 125 g ai/ha, 0 to 100 scale, 0 is no effect, 100 is complete control, approximately 10 days
[25] = 31 g ai/ha, 0 to 100 scale (0 no effect, 100 complete control)

FC(F)(F)CCCCCc1c(Cl)cccc1Oc1ncc(Cl)cn1 [Compound 124]
Plant response rating, Pigweed [1, 21]: 40
Plant response rating, Pigweed [1, 22]: 100
Plant response rating, Barnyardgrass [2, 21]: 10
Plant response rating, Barnyardgrass [2, 22]: 80
Plant response rating, Ryegrass, Italian [3, 21]: 0
Plant response rating, Ryegrass, Italian [3, 22]: 20
Plant response rating, Kochia [4, 21]: 0
Plant response rating, Kochia [4, 22]: 10
Plant response rating, Foxtail, Giant [5, 21]: 60
Plant response rating, Foxtail, Giant [5, 22]: 100
Plant response rating, Ragweed [6, 21]: 0
Plant response rating, Ragweed [6, 22]: 0
Plant response rating, Barnyardgrass [7]: 45
Plant response rating, Sedge, Umbrella [8]: 100
Plant response rating, Rice [9]: 40
Plant response rating, Ducksalad [10]: 100
Pigweed plant response rating [11, 23]: 70
Pigweed plant response rating [11, 24]: 100
Barnyardgrass plant response rating ([12]; 31 g ai/ha): 10
Barnyardgrass plant response rating ([12]; 125 g ai/ha): 60
Ryegrass, Italian plant response rating [13, 23]: 0
Ryegrass, Italian plant response rating [13, 24]: 20
Kochia plant response rating [14, 23]: 50
Kochia plant response rating [14, 24]: 80
Galium plant response rating [15, 23]: 70
Galium plant response rating [15, 24]: 90
Wheat plant response rating [16, 23]: 10
Wheat plant response rating [16, 24]: 10
Foxtail, Giant plant response rating [17, 23]: 30
Foxtail, Giant plant response rating [17, 24]: 70
Ragweed plant response rating [18, 23]: 10
Ragweed plant response rating [18, 24]: 20
Blackgrass plant response rating [19, 23]: 20
Blackgrass plant response rating [19, 24]: 60
Corn plant response rating [20, 23]: 10
Corn plant response rating [20, 24]: 20

CN(CCCC(F)(F)F)c1c(C#N)cccc1Oc1ncc(Cl)cn1 [Compound 126]
Plant response rating, Pigweed [1, 21]: 0
Plant response rating, Pigweed [1, 22]: 0
Plant response rating, Barnyardgrass [2, 21]: 0
Plant response rating, Barnyardgrass [2, 22]: 0
Plant response rating, Ryegrass, Italian [3, 21]: 0
Plant response rating, Ryegrass, Italian [3, 22]: 0
Plant response rating, Kochia [4, 21]: 0
Plant response rating, Kochia [4, 22]: 0
Plant response rating, Foxtail, Giant [5, 21]: 0
Plant response rating, Foxtail, Giant [5, 22]: 0
Plant response rating, Ragweed [6, 21]: 0
Plant response rating, Ragweed [6, 22]: 0
Plant response rating, Barnyardgrass [7]: 90
Plant response rating, Sedge, Umbrella [8]: 0
Plant response rating, Rice [9]: 0
Plant response rating, Ducksalad [10]: 0
Pigweed plant response rating [11, 23]: 0
Pigweed plant response rating [11, 24]: 10
Barnyardgrass plant response rating ([12]; 31 g ai/ha): 0
Barnyardgrass plant response rating ([12]; 125 g ai/ha): 0
Ryegrass, Italian plant response rating [13, 23]: 0
Ryegrass, Italian plant response rating [13, 24]: 0
Kochia plant response rating [14, 23]: 0
Kochia plant response rating [14, 24]: 0
Galium plant response rating [15, 23]: 0
Galium plant response rating [15, 24]: 0
Wheat plant response rating [16, 23]: 0
Wheat plant response rating [16, 24]: 0
Foxtail, Giant plant response rating [17, 23]: 0
Foxtail, Giant plant response rating [17, 24]: 0
Ragweed plant response rating [18, 23]: 0
Ragweed plant response rating [18, 24]: 0
Blackgrass plant response rating [19, 23]: 0
Blackgrass plant response rating [19, 24]: 0
Corn plant response rating [20, 23]: 0
Corn plant response rating [20, 24]: 0

CCCCC(C#N)c1ccccc1Oc1ncc(Cl)cn1 (stereo not drawn) [Compound 129]
Plant response rating, Pigweed [1, 21]: 90
Plant response rating, Pigweed [1, 22]: 100
Plant response rating, Barnyardgrass [2, 21]: 70
Plant response rating, Barnyardgrass [2, 22]: 100
Plant response rating, Ryegrass, Italian [3, 21]: 20
Plant response rating, Ryegrass, Italian [3, 22]: 60
Plant response rating, Kochia [4, 21]: 30
Plant response rating, Kochia [4, 22]: 100
Plant response rating, Foxtail, Giant [5, 21]: 100
Plant response rating, Foxtail, Giant [5, 22]: 100
Plant response rating, Ragweed [6, 21]: 0
Plant response rating, Ragweed [6, 22]: 0
Plant response rating, Barnyardgrass [7]: 45
Plant response rating, Sedge, Umbrella [8]: 80
Plant response rating, Rice [9]: 40
Plant response rating, Ducksalad [10]: 90
Pigweed plant response rating [11, 25]: 20
Pigweed plant response rating [11, 24]: 70
Barnyardgrass plant response rating ([12]; 31 g ai/ha): 20
Barnyardgrass plant response rating ([12]; 125 g ai/ha): 100
Ryegrass, Italian plant response rating [13, 25]: 0
Ryegrass, Italian plant response rating [13, 24]: 60
Kochia plant response rating [14, 25]: 40
Kochia plant response rating [14, 24]: 100
Galium plant response rating [15, 25]: 30
Galium plant response rating [15, 24]: 90
Wheat plant response rating [16, 25]: 0
Wheat plant response rating [16, 24]: 10
Foxtail, Giant plant response rating [17, 25]: 20
Foxtail, Giant plant response rating [17, 24]: 100
Ragweed plant response rating [18, 25]: 0
Ragweed plant response rating [18, 24]: 0
Blackgrass plant response rating [19, 25]: 20
Blackgrass plant response rating [19, 24]: 80
Corn plant response rating [20, 25]: 20
Corn plant response rating [20, 24]: 20

N#Cc1cccc(Oc2ncc(Cl)cn2)c1COCC(F)(F)F [Compound 131]
Plant response rating, Pigweed [1, 21]: 90
Plant response rating, Pigweed [1, 22]: 100
Plant response rating, Barnyardgrass [2, 21]: 0
Plant response rating, Barnyardgrass [2, 22]: 100
Plant response rating, Ryegrass, Italian [3, 21]: 0
Plant response rating, Ryegrass, Italian [3, 22]: 20
Plant response rating, Kochia [4, 21]: 10
Plant response rating, Kochia [4, 22]: 100
Plant response rating, Foxtail, Giant [5, 21]: 0
Plant response rating, Foxtail, Giant [5, 22]: 90
Plant response rating, Ragweed [6, 21]: 0
Plant response rating, Ragweed [6, 22]: 0
Plant response rating, Barnyardgrass [7]: 15
Plant response rating, Sedge, Umbrella [8]: 90
Plant response rating, Rice [9]: 15
Plant response rating, Ducksalad [10]: 80
Pigweed plant response rating [11, 25]: 50
Pigweed plant response rating [11, 24]: 80
Barnyardgrass plant response rating ([12]; 31 g ai/ha): 0
Barnyardgrass plant response rating ([12]; 125 g ai/ha): 10
Ryegrass, Italian plant response rating [13, 25]: 0
Ryegrass, Italian plant response rating [13, 24]: 20
Kochia plant response rating [14, 25]: 40
Kochia plant response rating [14, 24]: 90
Galium plant response rating [15, 25]: 20
Galium plant response rating [15, 24]: 50
Wheat plant response rating [16, 25]: 0
Wheat plant response rating [16, 24]: 20
Foxtail, Giant plant response rating [17, 25]: 0
Foxtail, Giant plant response rating [17, 24]: 20
Ragweed plant response rating [18, 25]: 0
Ragweed plant response rating [18, 24]: 0
Blackgrass plant response rating [19, 25]: 0
Blackgrass plant response rating [19, 24]: 0
Corn plant response rating [20, 25]: 20
Corn plant response rating [20, 24]: 30

From US11053204B2, “Pyrimidinyloxy benzene derivatives as herbicides” (FMC Corporation, priority 2015, dated 2021)
